From US6524556B2, “Aerosol compositions” (Fujisawa Pharmaceutical Co., Ltd., priority 1995, dated 2003)

Columns and labels:
Assay type in all cases: physicochemical
[1] = Aerodynamic particle size distribution (USP23 Apparatus 1, multistage cascade impactor); details: for Mass Median Aerodynamic Diameter: 0.05% FK506 aerosol composition
Description: Aerodynamic Particle Size Distribution According to the conventional method in USP23 (Apparatus 1), the aerodynamic particle size distribution was assessed from FK506 amount in each stage after applying one mg FK506 to multistage cascade impactor by firing FK506 aerosol composition. FK506 measurement was conducted by HPLC method and the MMAD was calculated from the particle size distribution. The FK506 aerosol compositions were prepared according to a similar manner to that of the below-mentioned Example 2.

[2] = Effect of MCT content on the solubility of FK506 in HFAs; parameters: key to Solubility of FK506 in HFAs (solution or suspension): ∘: solution; —: suspension
Description: The addition of MCT enables the filling of FK506 as a solution into aerosol system. As a result, the change of spray performance will not be caused by aggregation of FK506 crystalline particles and the emitted dose uniformity of FK506 can be more reliable. The aerosol compositions used in this study were prepared according to a similar manner to that of Example 2.

[3] = Dissolution test of mist particles (JP12 paddle method); details: for T 50% (dissolution rate of FK506): distilled water 37° C., paddle 50 rpm
Description: Dissolution Test FK506 dissolution from the mist particles after firing FK506 aerosol composition was examined in distilled water at 37° C. using the paddle method at 50 rpm, according to the dissolution test method in JP12. The emitted dose from aerosol composition was adjusted to be one mg FK506 as a total in the test fluid. FK506 was measured by HPLC method. The FK506 aerosol compositions were prepared according to a similar manner to that of Example 2.

C=CC[C@@H]1/C=C(\C)C[C@H](C)C[C@H](OC)[C@H]2O[C@@](O)(C(=O)C(=O)N3CCCC[C@H]3C(=O)O[C@H](/C(C)=C/[C@@H]3CC[C@@H](O)[C@H](OC)C3)[C@H](C)[C@@H](O)CC1=O)[C@H](C)C[C@@H]2OC [FK506, 17-allyl-1,14-dihydroxy-12-[2-(4-hydroxy-3-methoxycyclohexyl)-1-methylvinyl]-23,25-dimethoxy-13,19,21,27-tetramethyl-11,28-dioxa-4-azatricyclo-[22.3.1.0^4,9]octacos-18-ene-2,3,10,16-tetraone]
Mass Median Aerodynamic Diameter ([1]; propellant HFA-134a, MCT content 0.5%): 1.6 μm
Mass Median Aerodynamic Diameter ([1]; propellant HFA-227, MCT content 0.05%): 1.5 μm
Mass Median Aerodynamic Diameter ([1]; propellant HFA-227, MCT content 0.5%): 1.7 μm
Mass Median Aerodynamic Diameter ([1]; propellant HFA-227, MCT content 1%): 2.5 μm
Mass Median Aerodynamic Diameter ([1]; propellant HFA-227, MCT content 2%): 3.1 μm
Mass Median Aerodynamic Diameter ([1]; propellant HFA-227, MCT content 5%): 4.0 μm
Mass median aerodynamic diameter (MMAD), trend ([1]; FK506 aerosol composition, addition of MCT): increased in proportion to MCT amount added
Solubility of FK506 in HFAs (solution or suspension) ([2]; MCT content 0.05%, FK506 content 0.05 w/v % in HFA-134a): ∘
Solubility of FK506 in HFAs (solution or suspension) ([2]; MCT content 0.05%, FK506 content 0.05 w/v % in HFA-227): ∘
Solubility of FK506 in HFAs (solution or suspension) ([2]; MCT content 0.05%, FK506 content 0.1 w/v % in HFA-227): —
Solubility of FK506 in HFAs (solution or suspension) ([2]; MCT content 0.05%, FK506 content 0.2 w/v % in HFA-134a): —
Solubility of FK506 in HFAs (solution or suspension) ([2]; MCT content 0.05%, FK506 content 0.2 w/v % in HFA-227): —
Solubility of FK506 in HFAs (solution or suspension) ([2]; MCT content 0.05%, FK506 content 0.5 w/v % in HFA-227): —
Solubility of FK506 in HFAs (solution or suspension) ([2]; MCT content 0.5%, FK506 content 0.05 w/v % in HFA-134a): ∘
Solubility of FK506 in HFAs (solution or suspension) ([2]; MCT content 0.5%, FK506 content 0.05 w/v % in HFA-227): ∘
Solubility of FK506 in HFAs (solution or suspension) ([2]; MCT content 0.5%, FK506 content 0.1 w/v % in HFA-227): ∘
Solubility of FK506 in HFAs (solution or suspension) ([2]; MCT content 0.5%, FK506 content 0.2 w/v % in HFA-134a): —
Solubility of FK506 in HFAs (solution or suspension) ([2]; MCT content 0.5%, FK506 content 0.2 w/v % in HFA-227): —
Solubility of FK506 in HFAs (solution or suspension) ([2]; MCT content 0.5%, FK506 content 0.5 w/v % in HFA-227): —
Solubility of FK506 in HFAs (solution or suspension) ([2]; MCT content 2%, FK506 content 0.05 w/v % in HFA-134a): ∘
Solubility of FK506 in HFAs (solution or suspension) ([2]; MCT content 2%, FK506 content 0.05 w/v % in HFA-227): ∘
Solubility of FK506 in HFAs (solution or suspension) ([2]; MCT content 2%, FK506 content 0.1 w/v % in HFA-227): ∘
Solubility of FK506 in HFAs (solution or suspension) ([2]; MCT content 2%, FK506 content 0.2 w/v % in HFA-134a): ∘
Solubility of FK506 in HFAs (solution or suspension) ([2]; MCT content 2%, FK506 content 0.2 w/v % in HFA-227): ∘
Solubility of FK506 in HFAs (solution or suspension) ([2]; MCT content 2%, FK506 content 0.5 w/v % in HFA-227): —
Solubility of FK506 in HFAs (solution or suspension) ([2]; MCT content 5%, FK506 content 0.05 w/v % in HFA-134a): ∘
Solubility of FK506 in HFAs (solution or suspension) ([2]; MCT content 5%, FK506 content 0.05 w/v % in HFA-227): ∘
Solubility of FK506 in HFAs (solution or suspension) ([2]; MCT content 5%, FK506 content 0.1 w/v % in HFA-227): ∘
Solubility of FK506 in HFAs (solution or suspension) ([2]; MCT content 5%, FK506 content 0.2 w/v % in HFA-134a): ∘
Solubility of FK506 in HFAs (solution or suspension) ([2]; MCT content 5%, FK506 content 0.2 w/v % in HFA-227): ∘
Solubility of FK506 in HFAs (solution or suspension) ([2]; MCT content 5%, FK506 content 0.5 w/v % in HFA-227): —
Solubility of FK506 (change) ([2]; by mixing MCT into liquefied hydrofluoroalkanes): increased up
T 50% (dissolution rate of FK506) ([3]; HFA-134a, MCT content 0.5%, FK506 0.05%): 29 min
T 50% (dissolution rate of FK506) ([3]; HFA-134a, MCT content 0.5%, FK506 0.2%): 11 min
T 50% (dissolution rate of FK506) ([3]; HFA-134a, MCT content 2%, FK506 0.05%): 41 min
T 50% (dissolution rate of FK506) ([3]; HFA-134a, MCT content 2%, FK506 0.2%): 25 min
T 50% (dissolution rate of FK506) ([3]; HFA-227, MCT content 0%, FK506 0.05%): 5 min
T 50% (dissolution rate of FK506) ([3]; HFA-227, MCT content 0%, FK506 0.2%): 9 min
T 50% (dissolution rate of FK506) ([3]; HFA-227, MCT content 0.5%, FK506 0.05%): 30 min
T 50% (dissolution rate of FK506) ([3]; HFA-227, MCT content 0.5%, FK506 0.2%): 12 min
T 50% (dissolution rate of FK506) ([3]; HFA-227, MCT content 1%, FK506 0.05%): 38 min
T 50% (dissolution rate of FK506) ([3]; HFA-227, MCT content 1%, FK506 0.2%): 15 min
T 50% (dissolution rate of FK506) ([3]; HFA-227, MCT content 2%, FK506 0.05%): 43 min
T 50% (dissolution rate of FK506) ([3]; HFA-227, MCT content 2%, FK506 0.2%): 28 min
T 50% (dissolution rate of FK506) ([3]; HFA-227, MCT content 5%, FK506 0.05%): 51 min
T 50% (dissolution rate of FK506) ([3]; HFA-227, MCT content 5%, FK506 0.2%): 37 min
Release rate of FK506 from the mist particles, trend ([3]; addition of MCT): declined with addition of MCT
